Test results taken from patent US12497460B2, “Anti-MSR1 antibodies and methods of use thereof” (REGENERON PHARMACEUTICALS, INC., priority 2018, dated 2025).
pEC50: −log10 of the molar value.

Experiments:
[1] = tested on: LXR (THP1/LXR-Luc cells); experiment: Cell based LXR responsive luciferase reporter assay (Examples 34A, 34C); conditions: Homo sapiens, payload compounds, differentiated THP-1/LXR-Luc cells (Table 30); for maximal fold induction: read-out: S/N
Procedure: The activity of certain LXR agonist payloads described herein were assessed in a cell based LXR responsive luciferase reporter assay. To generate the assay cell line, an LXR regulated luciferase reporter gene (Cignal Lenti LXR Reporter (luc) kit (Qiagen, Cat #CLS-001L)) was transduced into THP1 cells and the cells were selected for two weeks in puromycin. The lentivirus expresses the firefly luciferase gene under the control of a minimal CMV promoter and tandem repeats of the LXR transcriptional response element. The resulting cell line is referred to as THP1/LXR-Luc cells. For the assay, THP1/LXR-Luc cells were seeded onto 96 well plates at 40,000 cells/well in media containing RPMI supplemented with 10% FBS and penicillin/streptomycin and were then differentiated with 200 nM Phorbol Myristate Acetate (PMA) for 3 days. The media was subsequently removed and replaced with 80 uL of fresh media without PMA. Three-fold serial dilutions of free payloads were prepared in 100% DMSO, transferred to fresh media, and 20 uL were added to the cells at a final constant DMSO concentration of 0.2% and free payloads at final concentrations ranging from 100 nM to 0.015 nM. The last well in the plate served as blank control containing only the media and 0.2% DMSO (untreated well) and was plotted as a continuation of the 3-fold serial dilution. Forty-eight hours later, luciferase activity was determined after the addition of One-Glo™ reagent (Promega, Cat #E6130) to each well. Relative light units (RLUs) were measured on a Victor luminometer (PerkinElmer) and EC50 values were determined using a four-parameter logistic equation over a 10-point dose response curve (GraphPad Prism). The signal to noise (S/N) was determined by taking the ratio of the highest RLU on the dose response curve to the RLU in the untreated wells.
Several linker-payloads (LPs) were derived from the payload compounds in Table C and conjugated to an anti-MSR1 antibody (H1H21234N-N297Q) or a non-binding control using the techniques described in the previous example. The resulting anti-MSR1 LXR agonist antibody drug conjugates (ADCs) were tested for activity in the THP1/LXRLuc reporter assay as described above for the payload compounds.

[2] = tested on: S. aureus MRSA strain NRS384 in humanized MSR1 mice; experiment: S. aureus IV disseminated infection mouse model, kidney burden; assay type: in vivo
Procedure: To test the efficacy of an anti-MSR1 Ab-antibiotic ncADC of the invention in vivo, an intravenous disseminated infection model was utilized. S. aureus MSRA strain NRS384 was grown overnight in trypic soy broth (TSB) and sub-cultured to mid-logarithmic phase. Bacteria were then washed twice with PBS and resuspended in PBS at a concentration of 1.2×10^8 cfu/mL. […] From one to three days post infection, mice were treated with 110 mg/kg vancomycin subcutaneously twice daily where indicated. […] Mice were monitored for weight loss and body conditioning score throughout the infection. At four days post infection, mice were euthanized and the S. aureus kidney burden was quantified by tissue homogenization followed by enumeration of colony forming units through serial dilution in PBS and plating onto trypicase soy agar plates.

[3] = vancomycin treatment alone, limit of detection 250 cfu

SMILES	pEC50 [1]	maximal fold induction [1]	reduction of S. aureus kidney burden ([2]; 110 mg/kg s.c. twice daily, days 1 to 3 post infection, day 4)	mice with S. aureus levels below the LOD (in words) ([2]; vancomycin alone, 110 mg/kg s.c. twice daily)	# of mice with S. aureus below the limit of detection [2, 3]	Average cfu/kidney pair [2, 3]
C[C@]1(C(=O)NC(=O)[C@@]2(C)CCC[C@]3(C)c4cc(O)ccc4CC[C@@H]23)CCC[C@]2(C)c3cc(N)ccc3CC[C@@H]12 [P1, (1S,4aS,10aR)-N-[(1S,4aS,10aR)-6-Amino-1,4a-dimethyl-1,2,3,4,4a,9,10,10a-octahydrophenanthrene-1-carbonyl]-6-hydroxy-1,4a-dimethyl-1,2,3,4,4a,9,10,10a-octahydrophenanthrene-1-carboxamide]	8.94	11.4	–	–	–	–
C[C@]1(C(=O)NC(=O)[C@@]2(C)CCC[C@]3(C)c4cc(N)ccc4CC[C@@H]23)CCC[C@]2(C)c3cc(N)ccc3CC[C@@H]12 [P2B, (1S,4aS,10aR)-6-Amino-N-((1S,4aS,10aR)-6-amino-1,4a-dimethyl-1,2,3,4,4a,9,10,10a-octahydrophenanthrene-1-carbonyl)-1,4a-dimethyl-1,2,3,4,4a,9,10,10a-octahydrophenanthrene-1-carboxamide]	9.53	11.3	–	–	–	–
C[C@]1(C(=O)NC(=O)[C@@]2(C)CCC[C@]3(C)c4cc(NC(=O)CN)ccc4CC[C@@H]23)CCC[C@]2(C)c3cc(N)ccc3CC[C@@H]12 [P4B, (1S,4aS,10aR)-N-[(1S,4aS,10aR)-6-(2-Aminoacetamido)-1,4a-dimethyl-1,2,3,4,4a,9,10,10a-octahydrophenanthrene-1-carbonyl]-6-amino-1,4a-dimethyl-1,2,3,4,4a,9,10,10a-octahydrophenanthrene-1-carboxamide]	9.90	10.4	–	–	–	–
C[C@]1(C(=O)NC(=O)[C@@]2(C)CCC[C@]3(C)c4cc(NC(=O)[C@@H](N)CO)ccc4CC[C@@H]23)CCC[C@]2(C)c3cc(N)ccc3CC[C@@H]12 [P5B, (1S,4aS,10aR)-6-Amino-N-((1S,4aS,10aR)-6-((S)-2-amino-3-hydroxypropanamido)-1,4a-dimethyl-1,2,3,4,4a,9,10,10a-octahydrophenanthrene-1-carbonyl)-1,4a-dimethyl-1,2,3,4,4a,9,10,10a-octahydrophenanthrene-1-carboxamide]	9.76	13.8	–	–	–	–
C[C@]1(C(=O)NC(=O)[C@@]2(C)CCC[C@]3(C)c4cc(NC(=O)[C@@H](N)CCCCN)ccc4CC[C@@H]23)CCC[C@]2(C)c3cc(N)ccc3CC[C@@H]12 [P6B, (1S,4aS,10aR)-6-Amino-N-((1S,4aS,10aR)-6-((S)-2,6-diaminohexanamido)-1,4a-dimethyl-1,2,3,4,4a,9,10,10a-octahydrophenanthrene-1-carbonyl)-1,4a-dimethyl-1,2,3,4,4a,9,10,10a-octahydrophenanthrene-1-carboxamide]	8.48	10.9	–	–	–	–
C[C@]1(C(=O)NC(=O)[C@@]2(C)CCC[C@]3(C)c4cc(NC(=O)[C@@H](N)CC(=O)O)ccc4CC[C@@H]23)CCC[C@]2(C)c3cc(N)ccc3CC[C@@H]12 [P7B, (S)-3-Amino-4-((4bS,8S,8aR)-8-((1S,4aS,10aR)-6-amino-1,4a-dimethyl-1,2,3,4,4a,9,10,10a-octahydrophenanthrene-1-carbonylcarbamoyl)-4b,8-dimethyl-4b,5,6,7,8,8a,9,10-octahydrophenanthren-3-ylamino)-4-oxobutanoic acid]	9.60	12.5	–	–	–	–
C[C@]1(C(=O)NC(=O)[C@@]2(C)CCC[C@]3(C)c4cc(NC(=O)[C@@H](N)CCC(=O)O)ccc4CC[C@@H]23)CCC[C@]2(C)c3cc(N)ccc3CC[C@@H]12 [P8B, (S)-4-Amino-5-((4bS,8S,8aR)-8-((1S,4aS,10aR)-6-Amino-1,4a-dimethyl-1,2,3,4,4a,9,10,10a-octahydrophenanthrene-1-carbonylcarbamoyl)-4b,8-dimethyl-4b,5,6,7,8,8a,9,10-octahydrophenanthren-3-ylamino)-5-oxopentanoic acid]	8.45	10.8	–	–	–	–
C[C@]1(C(=O)NC(=O)[C@@]2(C)CCC[C@]3(C)c4cc(NC(=O)[C@@H](N)Cc5cnc[nH]5)ccc4CC[C@@H]23)CCC[C@]2(C)c3cc(N)ccc3CC[C@@H]12 [P9B, (1S,4aS,10aR)-6-amino-N-((1S,4aS,10aR)-6-((S)-2-amino-3-(1H-imidazol-4-yl)propanamido)-1,4a-dimethyl-1,2,3,4,4a,9,10,10a-octahydrophenanthrene-1-carbonyl)-1,4a-dimethyl-1,2,3,4,4a,9,10,10a-octahydrophenanthrene-1-carboxamide]	9.63	12.8	–	–	–	–
C[C@]1(C(=O)NC(=O)[C@@]2(C)CCC[C@]3(C)c4cc(NC(=O)[C@@H](N)CCC(=O)O)ccc4CC[C@@H]23)CCC[C@]2(C)c3cc(NC(=O)CN)ccc3CC[C@@H]12 [P10B, (S)-4-Amino-5-((4bS,8S,8aR)-8-((1S,4aS,10aR)-6-(2-aminoacetamido)-1,4a-dimethyl-1,2,3,4,4a,9,10,10a-octahydrophenanthrene-1-carbonylcarbamoyl)-4b,8-dimethyl-4b,5,6,7,8,8a,9,10-octahydrophenanthren-3-ylamino)-5-oxopentanoic acid]	9.65	11.1	–	–	–	–
C[C@]1(C(=O)NC(=O)[C@@]2(C)CCC[C@]3(C)c4cc(NC(=O)[C@@H](N)CCC(=O)O)ccc4CC[C@@H]23)CCC[C@]2(C)c3cc(NC(=O)[C@@H](N)CCC(=O)O)ccc3CC[C@@H]12 [P11B, (4S,4'S)-5,5′-(4bS,4b'S,8S,8aR,8'S,8a′R)-8,8′-(Azanediylbis(oxomethylene))bis(4b,8-dimethyl-4b,5,6,7,8,8a,9,10-octahydrophenanthrene-8,3-diyl)bis(azanediyl)bis(4-amino-5-oxopentanoic acid)]	9.95	10.7	–	–	–	–
C[C@H](NC(=O)[C@@H](N)CCC(=O)O)C(=O)Nc1ccc2c(c1)[C@@]1(C)CCC[C@](C)(C(=O)NC(=O)[C@@]3(C)CCC[C@]4(C)c5cc(N)ccc5CC[C@@H]34)[C@@H]1CC2 [P12B, (S)-4-Amino-5-((S)-1-((4bS,8S,8aR)-8-((1S,4aS,10aR)-6-amino-1,4a-dimethyl-1,2,3,4,4a,9,10,10a-octahydrophenanthrene-1-carbonylcarbamoyl)-4b,8-dimethyl-4b,5,6,7,8,8a,9,10-octahydrophenanthren-3-ylamino)-1-oxopropan-2-ylamino)-5-oxopentanoic acid]	9.53	11.4	–	–	–	–
CN[C@H](CC(C)C)C(=O)N[C@H]1C(=O)N[C@@H](CC(N)=O)C(=O)N[C@H]2C(=O)N[C@H]3C(=O)N[C@H](C(=O)N[C@H](C(=O)O)c4cc(O)cc(O)c4-c4cc3ccc4O)[C@H](O)c3ccc(c(Cl)c3)Oc3cc2cc(c3O[C@@H]2O[C@H](CO)[C@@H](O)[C@H](O)[C@H]2O[C@H]2C[C@](C)(N)[C@H](O)[C@H](C)O2)Oc2ccc(cc2Cl)[C@H]1O [vancomycin]	–	–	approximately 2 logs	none of the mice had levels of S. aureus reduced below the limit of detection	0/6	2.07E+06 cfu/kidney pair
